One experiment deals with HBEC30KT. Nature of the experiment: Cell viability (ATP, Cell Titer Glo, 4 days), HBEC30KT. In kind it is cell-based, human. As to conditions: Homo sapiens. (In general: Cellular ATP, detected with luciferase, serves as a proxy for viable cell number.)
In another experiment the test system is H1155. Nature of the experiment: Cell viability dose-response, H1155. In kind it is cell-based. The note with it: Homo sapiens, NCI-H1155. The method, then: (§1) FIG. 6A. […] Cell viability is plotted vs. compound concentration. Compound was added to cells plated at 15% confluence in 96-well plates in RPMI-1640 media supplemented with 5% Fetal Bovine Serum and 2 mM L-Glutamine. After 4 days of incubation, ATP levels were measured using Cell Titer Glo (Promega). Data are presented as the average of 2 replicates ±SEM.
(§2) Selectivity may be measured by the half maximal inhibitory concentration (IC50), which, as used herein, is a measure of the effectiveness of a compound in killing cells. This quantitative measure indicates how much of a particular compound is needed to kill a particular cell population by half (e.g., as indicated by the amount of ATP). […] The IC50 can be determined by constructing a dose-response curve. The lower the IC50, the higher the potency, and the greater the difference between IC50 values for different cell lines (e.g., sensitive lines vs. insensitive lines, and sensitive lines vs. normal lines) the greater the selectivity. […]
(§3) With this information, we synthesized and tested a series of small molecules derived in conception from the oxalamide and chromone scaffold including N-acyl ureas, as shown in Tables 6-8. Each compound was tested in a 12-point dose-response study starting at 50 micromolar and decreasing in 3-fold increments to sub-nanomolar concentrations, in duplicate. Additionally, one or more additional cell line was tested in the same way.

In another experiment the test system is H1395. The experiment in a line: Cell viability dose-response, H1395. It is filed as cell-based. The note with it: Homo sapiens, NCI-H1395. How it is done:
as §1, §2, §3

The test system of another experiment is H1819. Nature of the experiment: Cell viability dose-response, H1819. It is filed as cell-based, human. The note with it: Homo sapiens. The method in brief:
(§4)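 Cells plated at 15% confluence in RPMI-1640 with 5% FBS and 2 mM L-glutamine, treated with compound in a 12-point, 3-fold dilution series from 50 micromolar, in duplicate. ATP measured by Cell Titer Glo after 4 days; IC50 taken from the dose-response curve.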

A further experiment relates to H1993. Nature of the experiment: Cell viability dose-response, H1993. It is filed as cell-based. As to conditions: Homo sapiens, NCI-H1993. The method, then:
as §1, §2, §3

Another experiment concerns H2009. The experiment in a line: Cell viability dose-response, H2009. It is filed as cell-based, human. The note with it: Homo sapiens, NCI-H2009. A digest of the protocol:
(§5)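 Cells were plated at 15% confluence in RPMI-1640 with 5% FBS and 2 mM L-glutamine, then exposed to compound for 4 days. Viability was read as cellular ATP by CellTiter-Glo luminescence. Values are means of 2 replicates ±SEM, and IC50 comes from the dose-response curve.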

In a further experiment the test system is H2073. Nature of the experiment: Cell viability dose-response, H2073. As to conditions: Homo sapiens. In kind it is cell-based, human. A digest of the protocol:
as §5

The subject of another experiment is H2122. The experiment in a line: Cell viability dose-response, H2122. As to conditions: Homo sapiens. It is filed as cell-based, human. A digest of the protocol:
as §4

The next experiment deals with H460. Nature of the experiment: Cell viability dose-response, H460. In kind it is cell-based. As to conditions: Homo sapiens, NCI-H460. How it is done:
as §1, §2, §3

Another experiment has as its system HCC366. The experiment in a line: Cell viability dose-response, HCC366. It is filed as cell-based. The note with it: Homo sapiens. The method, then:
as §1, §2, §3

Another experiment concerns HCC4017. The experiment in a line: Cell viability dose-response, HCC4017. As to conditions: Homo sapiens. In kind it is cell-based, human. How it is done:
as §1, §2, §3

The subject of a further experiment is HCC44. Nature of the experiment: Cell viability dose-response, HCC44. As to conditions: Homo sapiens. In kind it is cell-based, human. A digest of the protocol: as §5
The test system of a further experiment is HCC95. The experiment in a line: Cell viability dose-response, HCC95. The note with it: Homo sapiens. In kind it is cell-based. The method, then: as §1, §2, §3
Where [1] appears, read: Tables 3 and 4, read-out: HBEC30KT IC50.
Where [2] appears, read: Tables 3 and 4, read-out: IC50 (uM) vs indicated non-small cell lung cancer cell line H1155.
Where [3] appears, read: Tables 3 and 4, read-out: IC50 (uM) vs indicated non-small cell lung cancer cell line H1395.
Setting [4] is: NCI-H1819, Tables 3 and 4, read-out: IC50 (uM) vs indicated non-small cell lung cancer cell line H1819.
Setting [5] is: Tables 3 and 4, read-out: IC50 (uM) vs indicated non-small cell lung cancer cell line H1993.
The mark [6] stands for this setting: Tables 3 and 4, read-out: IC50 (uM) vs indicated non-small cell lung cancer cell line H2009.
The mark [7] stands for this setting: NCI-H2073, Tables 3 and 4, read-out: IC50 (uM) vs indicated non-small cell lung cancer cell line H2073.
Setting [8] is: NCI-H2122, Tables 3 and 4, read-out: IC50 (uM) vs indicated non-small cell lung cancer cell line H2122.
[9] abbreviates: Tables 3 and 4, read-out: IC50 (uM) vs indicated non-small cell lung cancer cell line H460.
Where [10] appears, read: Tables 3 and 4, read-out: IC50 (uM) vs indicated non-small cell lung cancer cell line HCC366.
Setting [11] is: HCC4017, Tables 3 and 4, read-out: IC50 (uM) vs indicated non-small cell lung cancer cell line HCC4017.
Setting [12] is: HCC44, Tables 3 and 4, read-out: IC50 (uM) vs indicated non-small cell lung cancer cell line HCC44.
Setting [13] is: Tables 3 and 4, read-out: IC50 (uM) vs indicated non-small cell lung cancer cell line HCC95.

Where two headings read alike, the source gives them in different places.

In the case of `O=C(c1ccccc1)c1ccc(NC(=O)c2sc3ccccc3c2Cl)cc1` [SW025780], the IC50 with HBEC30KT (setting [1]) amounted to 51 µM; in the experiment on H1155 (setting [2]), 33 µM; in the experiment on H1395 (setting [3]), 99 µM; in the experiment on H1819 (setting [4]) it was 27 µM; in the experiment with H1993 (setting [5]) it was 31 µM; with H2009 (setting [6]) it was 60 µM. Further, the IC50 amounted to 0.08 µM with H2073 (setting [7]); 0.007 µM in the experiment with H2122 (setting [8]); 46 µM in the experiment with H460 (setting [9]); 248 µM in the experiment on HCC366 (setting [10]); 56 µM in the experiment with HCC4017 (setting [11]); 64 µM in the experiment with HCC44 (setting [12]). Besides, in the experiment with HCC95 (setting [13]), the IC50 was 7.7 µM.

For `O=C(Nc1nc2ccccc2s1)c1cccnc1` [SW006981], the IC50 was determined as 272 µM in the experiment on HBEC30KT (setting [1]); 95 µM with H1155 (setting [2]); 51 µM in the experiment on H1395 (setting [3]); 50 µM in the experiment with H1819 (setting [4]); 21.5 µM in the experiment with H1993 (setting [5]); 325 µM with H2009 (setting [6]). In addition, the IC50 with H2073 (setting [7]) was determined as 12.5 µM; in the experiment with H2122 (setting [8]) it was 0.26 µM; with H460 (setting [9]), 180 µM; in the experiment with HCC366 (setting [10]), 85 µM; with HCC4017 (setting [11]), 76 µM; with HCC44 (setting [12]) it was 63.7 µM. The IC50 in the experiment on HCC95 (setting [13]) amounted to 110 µM.

As to `COc1ccc2nc(NC(=O)c3ccc(OCc4ccccc4)cc3)sc2c1` [SW202773-1], the IC50 in the experiment with HBEC30KT (setting [1]) was determined as 24.9 µM; in the experiment on H1155 (setting [2]), 23.6 µM; with H1395 (setting [3]), 25.9 µM; in the experiment on H1819 (setting [4]) it was 42.9 µM; in the experiment on H1993 (setting [5]), 21.7 µM; in the experiment on H2009 (setting [6]), 16.6 µM. For the same molecule, the IC50 in the experiment with H2073 (setting [7]) worked out at 0.268 µM; in the experiment on H2122 (setting [8]) it was 0.0431 µM; with H460 (setting [9]) it was 0.157 µM; in the experiment on HCC366 (setting [10]) it was 41.8 µM; in the experiment on HCC4017 (setting [11]) it was 21.1 µM; in the experiment with HCC44 (setting [12]), 0.122 µM. Also, in the experiment with HCC95 (setting [13]), the IC50 was 0.163 µM.

Turning to `COc1ccc(CCNC(=O)C(=O)Nc2ccc(Cl)cc2)cc1` [SW027951], the IC50 was 50 µM in the experiment with HBEC30KT (12-point dose-response starting at 50 micromolar, 3-fold increments, in duplicate, read-out: toxicity data, HBEC30KT); 50 µM in the experiment on H1155 (12-point dose-response starting at 50 micromolar, 3-fold increments, in duplicate, read-out: toxicity data, H1155); 50 µM in the experiment on H1395 (12-point dose-response starting at 50 micromolar, 3-fold increments, in duplicate, read-out: toxicity data, H1395); at least 50 µM with H1819 (NCI-H1819, 12-point dose-response starting at 50 micromolar, 3-fold increments, in duplicate, read-out: toxicity data, H1819); 50 µM with H1993 (12-point dose-response starting at 50 micromolar, 3-fold increments, in duplicate, read-out: toxicity data, H1993); at least 50 µM with H2009 (12-point dose-response starting at 50 micromolar, 3-fold increments, in duplicate, read-out: toxicity data, H2009). The IC50 with H2073 (NCI-H2073, 12-point dose-response starting at 50 micromolar, 3-fold increments, in duplicate, read-out: toxicity data, H2073) was at least 50 µM; in the experiment with H2122 (NCI-H2122, 12-point dose-response starting at 50 micromolar, 3-fold increments, in duplicate, read-out: toxicity data, H2122) it was 0.15 µM; in the experiment on H460 (12-point dose-response starting at 50 micromolar, 3-fold increments, in duplicate, read-out: toxicity data, H460) it was 1.34 µM; with HCC366 (12-point dose-response starting at 50 micromolar, 3-fold increments, in duplicate, read-out: toxicity data, HCC366), 50 µM; in the experiment on HCC4017 (HCC4017, 12-point dose-response starting at 50 micromolar, 3-fold increments, in duplicate, read-out: toxicity data, HCC4017), at least 50 µM; in the experiment with HCC44 (HCC44, 12-point dose-response starting at 50 micromolar, 3-fold increments, in duplicate, read-out: toxicity data, HCC44), at least 50 µM. Besides, in the experiment with HCC95 (12-point dose-response starting at 50 micromolar, 3-fold increments, in duplicate, read-out: toxicity data, HCC95), the IC50 came out at 0.09 µM.

As for `O=C(Nc1ccc(F)c(Cl)c1)c1sc2ccccc2c1Cl` [SW118753], the IC50 in the experiment on HBEC30KT (setting [1]) amounted to 108 µM; in the experiment on H1155 (setting [2]), 105 µM; in the experiment on H1395 (setting [3]) it was 600 µM; in the experiment on H1819 (setting [4]) it was 38 µM; with H1993 (setting [5]), 73 µM; with H2009 (setting [6]), 65 µM. Besides, the IC50 was 0.9 µM in the experiment with H2073 (setting [7]); 0.8 µM in the experiment on H2122 (setting [8]); 375 µM in the experiment with HCC366 (setting [10]); 700 µM with HCC4017 (setting [11]); 265 µM in the experiment on HCC44 (setting [12]); 300 µM with HCC95 (setting [13]).
